≈ marks a conversion by molar mass, not a printed value.
Legend:
[1] = test system: Bacillus cereus (ATCC 11778); assay: MIC, NCCLS broth microdilution assay; type: cell-based; conditions: A = B. cereus ATCC 11778
Outline: (§1)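 The antifungal assay used the Manual of Clinical Microbiology (1995) procedure. […] minimal inhibitory concentrations came from NCCLS broth microdilution per M7-A4, M11-A4 and M27-T.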

[2] = test system: Staphylococcus aureus (ATCC 13709, a methicillin sensitive strain (MSSA)); assay: MIC, NCCLS broth microdilution assay; type: cell-based; conditions: E = S. aureus ATCC 13709
Outline: as §1

[3] = test system: Staphylococcus aureus (ATCC 27660, a methicillin resistant strain (MRSA)); assay: MIC, NCCLS broth microdilution assay; type: cell-based; conditions: F = S. aureus ATCC 27660
Outline: as §1

[4] = test system: Candida albicans (ATCC 38247); assay: Antifungal MIC assay; type: cell-based; conditions: B = C. albicans ATCC 38247
Outline: as §1

E. faecalis ATCC 29212 = assay: MIC, NCCLS broth microdilution assay; type: cell-based, Enterococcus faecalis; conditions: C = E. faecalis ATCC 29212
Outline: (§2)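 MICs were determined by NCCLS broth microdilution following documents M7-A4 and M11-A4 (1997).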

S. pneumoniae ATCC 49619 = assay: MIC, NCCLS broth microdilution assay; type: cell-based, Streptococcus pneumoniae; conditions: H = S. pneumoniae ATCC 49619
Outline: as §2

[5] = Staphylococcus aureus, read-out: Minimum Inhibitory Concentration (MIC)

Row | Structure (SMILES) | Minimum Inhibitory Concentration (MIC) [1] | Minimum Inhibitory Concentration (MIC) [2] | Minimum Inhibitory Concentration (MIC) [3] | Minimum Inhibitory Concentration (MIC) [4] | Minimum Inhibitory Concentration (MIC) (E. faecalis ATCC 29212) | Minimum Inhibitory Concentration (MIC) (S. pneumoniae ATCC 49619) | MIC ([1]; Bacillus cereus, ATCC11778, read-out: Minimum Inhibitory Concentration (MIC)) [µg/mL] | MIC [2, 5] [µg/mL] | MIC [3, 5] [µg/mL] | MIC ([4]; Candida albicans, ATCC38247, read-out: Minimum Inhibitory Concentration (MIC)) [µg/mL] | MIC (E. faecalis ATCC 29212; Enterococcus faecalis, ATCC29212, read-out: Minimum Inhibitory Concentration (MIC)) [µg/mL] | MIC (S. pneumoniae ATCC 49619; Streptococcus pneumoniae, ATCC49619, read-out: Minimum Inhibitory Concentration (MIC)) [µg/mL]
1 | Cn1cc(NC(=O)c2cc(NC(=O)c3cc(NC(=O)c4ccc(F)cc4F)cn3C)cn2C)cc1C(=O)NCCN1CCC(O)CC1 [Compound B-19] | +++ (+++ = MIC ≦ 4) | +++ (+++ = MIC ≦ 4) | +++ (+++ = MIC ≦ 4) | >32 µg/mL | +++ (+++ = MIC ≦ 4) | +++ (+++ = MIC ≦ 4) |  |  |  |  |  | 
2 | Cn1cc(NC(=O)c2cc(NC(=O)c3cc(NC(=O)c4ccc(OC(F)F)cc4)cn3C)cn2C)cc1C(=O)NCCN1CCCC1 [Compound B-84] | +++ (+++ = MIC ≦ 4) | +++ (+++ = MIC ≦ 4) | +++ (+++ = MIC ≦ 4) | + (+ = 12 ≦ MIC ≦ 32) | +++ (+++ = MIC ≦ 4) | +++ (+++ = MIC ≦ 4) |  |  |  |  |  | 
3 | Cn1cc(NC(=O)c2cc(NC(=O)c3ccc(Cl)cc3F)c[nH]2)cc1C(=O)NCCc1ccncc1 [Compound A-25] | ++ (++ = 4 < MIC < 12) | +++ (+++ = MIC ≦ 4) | +++ (+++ = MIC ≦ 4) | >32 µg/mL | +++ (+++ = MIC ≦ 4) | +++ (+++ = MIC ≦ 4) |  |  |  |  |  | 
4 | CN(C)CC(C)(C)CNC(=O)c1cc(NC(=O)c2cc(NC(=O)c3cc(NC(=O)c4ccc(Cl)cc4F)c[nH]3)cn2C)cn1C [Compound A-14] | +++ (+++ = MIC ≦ 4) | +++ (+++ = MIC ≦ 4) | +++ (+++ = MIC ≦ 4) | + (+ = 12 ≦ MIC ≦ 32) | +++ (+++ = MIC ≦ 4) | +++ (+++ = MIC ≦ 4) |  |  |  |  |  | 
5 | Cn1cc(NC(=O)c2cc(NC(=O)c3ccc(F)cc3F)no2)cc1C(=O)NCCN1CCOCC1 [Compound E-3] | + (+ = 12 ≦ MIC ≦ 32) | >32 µg/mL | + (+ = 12 ≦ MIC ≦ 32) | >32 µg/mL | + (+ = 12 ≦ MIC ≦ 32) | + (+ = 12 ≦ MIC ≦ 32) |  |  |  |  |  | 
6 | Cc1cc(NC(=O)c2cc(NC(=O)c3cc(NC(=O)c4ccc(Cl)cc4F)cn3CCCN(C)C)c[nH]2)sn1 [Compound D-15] | +++ (+++ = MIC ≦ 4) | +++ (+++ = MIC ≦ 4) | +++ (+++ = MIC ≦ 4) | +++ (+++ = MIC ≦ 4) | +++ (+++ = MIC ≦ 4) | +++ (+++ = MIC ≦ 4) |  |  |  |  |  | 
7 | Cn1cc(NC(=O)c2cc(NC(=O)c3cc(NC(=O)c4ccc(F)cc4F)no3)cn2C)cc1C(=O)NCCN1CCOCC1 [Compound E-8] |  |  |  |  |  |  | 12 to 32 (≈ 19.2 to 51.2 µM) | ≤ 4 | ≤ 4 | > 32 | ≤ 4 | ≤ 4
8 | Cn1cc(NC(=O)c2cc(NC(=O)c3cc(NC(=O)c4ccc(F)cc4F)c[nH]3)cn2CCCO)cc1C(=O)NCCN1CCOCC1 [Compound C-5] | + (+ = 12 ≦ MIC ≦ 32) | + (+ = 12 ≦ MIC ≦ 32) | + (+ = 12 ≦ MIC ≦ 32) | >32 µg/mL | + (+ = 12 ≦ MIC ≦ 32) | +++ (+++ = MIC ≦ 4) |  |  |  |  |  | 
9 | CN(C)CCCn1cc(NC(=O)c2cc(NC(=O)c3ccc(Cl)cc3F)c[nH]2)cc1C(=O)Nc1cc(C(=O)NCCN2CCOCC2)n(C)c1 [Compound D-26] | +++ (+++ = MIC ≦ 4) | +++ (+++ = MIC ≦ 4) | +++ (+++ = MIC ≦ 4) | + (+ = 12 ≦ MIC ≦ 32) | +++ (+++ = MIC ≦ 4) | +++ (+++ = MIC ≦ 4) |  |  |  |  |  | 

Source: patent publication US7348427B2, “Antipathogenic benzamide compounds” (Genesoft Pharmaceuticals, Inc., priority 2001, dated 2008)
